From patent publication US7932042B1, “Methods and compositions for the treatment of psychotic disorders through the identification of the olanzapine poor response predictor genetic signature” (Suregene, LLC, priority 2010, dated 2011)
Marks after values point to notes of the source that are not given here.

Legend:
[1] = tested on: patients suffering from schizophrenia; assay: CATIE study: change in total PANSS (LOCF) by drug arm, segmented by OPRP genetic signature status; assay type: in vivo, human; set-up: key to Mean difference olanzapine vs. named drug, CATIE unsegemented / Mean difference olanzapine vs. named drug, CATIE OPRP+: difference in change in total PANSS score (LOCF); decrease = better response; details: for Mean difference olanzapine vs. named drug, CATIE OPRP+: positive = olanzapine inferior; for DELTA PANSS % (mean change in PANSS score from baseline to LOCF): more negative = greater improvement
Protocol: The CATIE study, a large federally funded clinical trial designed to assess the efficacy of antipsychotics in a real world setting, is a valuable resource for determining the role of genes in baseline psychopathology and drug response (Lieberman et al., 2005; Stroup et al., 2003). […] Additionally, whole genome SNP genotyping was performed for roughly half of the trial participants (Sullivan et al., 2008). Genotype and phenotype data for the CATIE trial were recently made available to qualified researchers through the NIMH Center for Collaborative Genetic Studies on Mental Disorders. The sample consisted of a total of 738 patients. For the present study, the inventors assigned OPRP status to 628 subjects, including 411 subjects of self-reported European ancestry and 217 subjects of self-reported African ancestry. Further details on the patient population are described in the study by Sullivan and coworkers (Sullivan et al., 2008). […] The design of the CATIE study has been described in detail by others (Lieberman et al., 2005; Stroup et al., 2003). […] Instead of entering into Phase II of the trial, subjects who switched from perphenazine entered Phase IB. […] Subjects who failed Phase IB then entered Phase II. A total of 738 subjects consented to provide DNA for genetic study. […] Only retrospective genetic analyses, judged to be exempt from human studies requirements by an IRB, were conducted in the current study. For the genetic analyses presented herein, the inventors combined and evaluated drug response data for both Phase I and Phase IB of the CATIE study. All tested patients were studied using well established clinical endpoints comparing baseline, intermediate, and last observation carried forward (LOCF) for the PANSS scores using CATIE data. LOCF analysis is a commonly used clinical endpoint for clinical trials for neuropsychiatric drugs, with particular changes in PANSS scores being used to indicate clinically significant response (Leucht et al., 2009). Using the clinical data from the CAIE trial, the inventors derived several different metrics used for quantifying response in clinical trials of antipsychotic medications. […] The greater the decrease in PANSS score, the better the clinical response. The most direct measure of clinical response is absolute change in PANSS score. In addition to absolute change, the improvement is often reported as a percentage change from baseline PANSS score. […] To examine the relationship of genotypes to drug response the inventors used the publicly available PLINK software (Purcell et al., 2007; available on the world wide web at pngu.mgh.harvard.edu/purcell/[…] Helix tree (Version 6.4.1; Golden Helix, Bozeman, Mont.). The inventors used Last observation Carry Forward (LOCF) delta PANSS values as a measure of response to antipsychotic treatment. […] The inventors refined the test further by conducting association analysis on using only those subjects that comprised the TT genotype of […]. […] Presence of the TT or TC genotypes of […] in individuals that comprised the TT genotype at […] indicates OPRP positive status. […] As mentioned previously, the mean change in absolute or percent PANSS provides an important measure of efficacy in patients undergoing antipsychotic treatments. Indeed, many pivotal trials in the psychosis field used absolute and/or percentage change in PANSS Score as the primary endpoint (Leucht et al., 2009). […] Therefore, in addition to examining a categorical definition of clinically significant response, the inventors determined the impact of segmentation by OPRP genetic signature status on the quantitative measure of clinical improvement-delta PANSS for LOCF.

[2] = tested on: patients suffering from schizophrenia; details: population not segmented by OPRP status; negative = greater reduction in PANSS; cited from earlier work
[3] = tested on: patients suffering from schizophrenia; assay: Diagnostic performance of the OPRP test in the CATIE study for worsening symptoms (Delta PANSS ≧ 0); assay type: in vivo, human
Description: Several different measures of diagnostic performance can be used for comparing dichotomous outcomes. Two important metrics include percent positive agreement (PPA), a substitute for sensitivity, and percent negative agreement (PNA), a substitute for specificity.

[4] = tested on: patients suffering from schizophrenia; details: weighted mean difference in PANSS score (absolute); negative = olanzapine superior; cited from earlier work
[5] = tested on: patients suffering from schizophrenia; details: vs first generation antipsychotics; Davis et al. (2003); cited from earlier work
[6] = delta PANSS, negative = olanzapine superior
[7] = olanzapine OPRP positive versus drug OPRP positive
[8] = olanzapine-treated OPRP+ group minus named comparator drug OPRP+ group, positive = poorer response to olanzapine

Row | Compound | Number of individuals with change in total PANSS (LOCF) ≦−10% (responders) ([1]; OPRP Negative) | Number of individuals with change in total PANSS (LOCF) ≧−10% ([1]; OPRP Negative) | Number of individuals with delta PANSS (LOCF) ≦0% ([1]; OPRP Negative) | Number of individuals with delta PANSS (LOCF) ≧0% (worsening symptoms) ([1]; OPRP Negative) | Responders (change in PANSS of ≦−10%) ([1]; OPRP Negative) | Worsening (delta PANSS ≧0%) ([1]; OPRP Negative) | Number of individuals with change in total PANSS (LOCF) ≦−10% (responders) ([1]; OPRP Positive) | Number of individuals with change in total PANSS (LOCF) ≧−10% ([1]; OPRP Positive) | Number of individuals with delta PANSS (LOCF) ≦0% ([1]; OPRP Positive) | Number of individuals with delta PANSS (LOCF) ≧0% (worsening symptoms) ([1]; OPRP Positive) | Responders (change in PANSS of ≦−10%) ([1]; OPRP Positive) | Worsening (delta PANSS ≧0%) ([1]; OPRP Positive) | Mean difference olanzapine vs. named drug, CATIE unsegemented [1, 6] | Mean difference olanzapine vs. named drug, CATIE OPRP+ ([1]; delta PANSS) | Mean difference (95% CI) in delta PANSS [1, 8] | Effect Size vs. Placebo [2] | Non-Worsen (number of subjects) ([3]; OPRP Positive) | Worsen (number of subjects, Delta PANSS ≧ 0) ([3]; OPRP Positive) | Mean difference olanzapine vs. named drug, Meta-analysis [4] | Effect Size vs. FGA [5] | other results
1 | O=C1Cc2cc(CCN3CCN(c4nsc5ccccc45)CC3)c(Cl)cc2N1 [Ziprasidone] | 16 | 53 | 35 | 34 | 23%^++++ | 49%^++++ | 2 | 9 | 7 | 4 | 18% | 36% | −4.9 | 4.8 | 4.8 (−2.7 to 12.3) | −0.48 | 7 | 4 | −8.3 | −0.04 | CATIE Effect Size [1, 7]: 0.2^b
2 | OCCOCCN1CCN(C2=Nc3ccccc3Sc3ccccc32)CC1 [Quetiapine] | 48 | 99 | 95 | 62 | 33%^+++ | 42%^+++ | 4 | 14 | 9 | 9 | 22% | 50% | −6.2 | 5.5 | 5.5 (−4.1 to 15.0) | −0.42 | 9 | 9 | −3.7 | 0.01 | Mean difference olanzapine vs. named drug, CATIE OPRP− [1, 6]: −8.4; CATIE Effect Size [1, 7]: 0.3^b
3 | Cc1nc2n(c(=O)c1CCN1CCC(c3noc4cc(F)ccc34)CC1)CCCC2 [Risperidone] | – | – | – | – | – | – | – | – | – | – | – | – | – | – | – | −0.59 | 13 | 7 | −1.9 | −0.25 | –
4 | OCCN1CCN(CCCN2c3ccccc3Sc3ccc(Cl)cc32)CC1 [Perphenazine] | 39 | 71 | 65 | 45 | 35%^+ | 41%^+++ | 5 | 7 | 9 | 3 | 42%^^ | 25%^ | – | – | 12 (2.0 to 22.0) | – | 9 | 3 | – | – | –
5 | Cc1cc2c(s1)Nc1ccccc1N=C2N1CCN(C)CC1 [Olanzapine] | 73 | 66 | 113 | 26 | 53%^* | 19%^* | 1 | 25 | 8 | 18 | 4% | 69% | – | – | – | – | 8 | 18 | – | – | DELTA PANSS % (mean change in PANSS score from baseline to LOCF) ([1]; OPRP Negative subjects): −11.6%; DELTA PANSS % (mean change in PANSS score from baseline to LOCF) ([1]; OPRP Positive subjects): 4.3%; DELTA PANSS % (mean change in PANSS score from baseline to LOCF) ([1]; OPRP Positive subjects, listed as olanzapine): +4.3%; CATIE Effect Size ([1]; olanzapine OPRP positive versus olanzapine OPRP negative): 1.0^a; CATIE Effect Size ([1]; olanzapine OPRP positive versus olanzapine OPRP negative, listed as olanzapine): 1.0; Mean difference (95% CI) in delta PANSS ([1]; olanzapine OPRP+ minus olanzapine OPRP−): 15.9 (9.7 to 22.1); Effect size (mean difference / standard deviation) ([1]; olanzapine OPRP+ vs olanzapine OPRP−): 1.0; Non-Worsen (number of subjects) ([3]; OPRP Negative): 113; Worsen (number of subjects, Delta PANSS ≧ 0) ([3]; OPRP Negative): 26
